Experimental findings from patent US8076486B2, “Heteroaryl-substituted arylaminopyridine derivatives as MEK inhibitors” (Merck Serono S.A., priority 2006, dated 2011) are described below.

Molecules are shown by their SMILES.

Assay [1] concerns human pancreatic MiaPaCa-2 cells. The assay can be described thus: Tumor Cell Proliferation Assay (ATP Lite), MiaPaCa-2. It counts as cell-based. To be noted: MIA PaCa-2, 96 h, 4 days, ATPlite, read-out: MiaPaCa2 cell proliferation IC50. The procedure:
(§1) Assay 2: Tumor Cell Proliferation Assays (ATP Lite)
(§2) Murine colon C26 (1500 cells/well), human melanoma A375 (2000 cells/well), or human pancreatic MiaPaCa-2 cells (2000 cells/well) were plated in white, 96 well plates (Corning) in growth media (DMEM with 10% fetal bovine serum, 2 mM glutamine for C26 and MiaPaCa-2, and RPMI with 10% fetal bovine serum, 2 mM glutamine for A375) and cultured overnight at 37° C. in a humidified, 5% CO2 incubator. Inhibitors were serially diluted in 100% DMSO and subsequently added to the cells, in growth media, to reach a final concentration of 0.25% DMSO. The cells were incubated for 4 days in the presence of the test compounds and the proliferation was quantitated using the ATPlite cell proliferation kit (Packard).
Background: Cellular ATP, detected with luciferase, serves as a proxy for viable cell number.

For assay [2], the target named is human MEK1 (Homo sapiens, UniProt Q02750, S218E/S222E). The assay can be described thus: MEK-1 Enzyme Assay (LANCE-HTRF). It counts as biochemical. To be noted: MEK-1 EE, ERK-2K52A substrate, 9 uM ATP, 1.5 hrs. Here is the method:
Assay 1: MEK-1 Enzyme Assay (LANCE-HTRF)
Inhibition of human MEK1 kinase activity was monitored with a homogenous, fluorescence-based assay. The assay uses time resolved fluorescence resonance energy transfer to probe for phosphorylation of ERK1 by MEK1. The detailed procedure is described in the following:
Constititutively active MEK-1 EE (150 ng/well) and ERK-2K52A (110 ng/well) were incubated in black, 384 well Optiplates (Perkin Elmer) for 1.5 hrs at room temperature, in the presence of increasing concentrations of inhibitors. The total reaction volume was 50 ul. The inhibitors were serial diluted in kinase buffer (9 uM ATP, 50 mM Tris-Hcl pH 8.0, 10 mM MgCl2, 1 mM DTT and 100 uM Na3VO4), to a final concentration of 1% DMSO. At the end of the incubation, the enzyme reaction was quenched by adding 50 ul of assay buffer containing 50 mM Tris-Hcl, 50 mM EDTA, 0.1% BSA and a mixture of 1.25 ug/mL europium labeled anti-phosphotyrosine mAb (Perkin Elmer) and 5 ug/mL of allophycocyanin labeled anti-GST antibody (CIS-US). Plates were agitated on a plate shaker for 30 minutes and the phosphorylation of the ERK-2K52A substrate was measured by homogeneous time resolved fluorescence (HTRF) at 340 nm excitation and […] emission filters on the VICTOR V fluorescence plate reader. Phosphorylation is expressed as a ratio of 665 nM signal×10,000/615 nM signal. To assess the inhibitory potential of the compounds, IC50-values were determined.

Assay [3] relates to Murine colon C26 cells. The assay is described as follows: Tumor Cell Proliferation Assay (ATP Lite), C26. The assay is classed as cell-based. To be noted: Mus musculus, 96 h, 4 days, ATPlite. The procedure: as §1, §2
In assay [4] the test system is human melanoma A375 cells. The assay is described as follows: Tumor Cell Proliferation Assay (ATP Lite), A375. It counts as cell-based. To be noted: A-375, 96 h, 4 days, ATPlite. The procedure: as §1, §2

Chain of human MEK1 (Q02750 whole entry S218E/S222E): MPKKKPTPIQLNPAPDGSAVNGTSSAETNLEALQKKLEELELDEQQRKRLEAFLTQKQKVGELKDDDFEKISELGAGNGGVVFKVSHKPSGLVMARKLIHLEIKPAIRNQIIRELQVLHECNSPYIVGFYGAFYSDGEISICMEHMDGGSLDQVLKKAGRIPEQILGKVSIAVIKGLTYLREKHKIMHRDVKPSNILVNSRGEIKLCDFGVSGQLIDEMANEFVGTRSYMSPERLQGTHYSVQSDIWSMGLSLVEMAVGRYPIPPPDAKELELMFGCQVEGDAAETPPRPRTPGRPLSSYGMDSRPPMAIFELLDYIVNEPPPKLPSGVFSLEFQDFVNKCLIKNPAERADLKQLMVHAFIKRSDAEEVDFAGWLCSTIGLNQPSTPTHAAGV

Consider `O=c1[nH]nc(-c2ccncc2Nc2ccc(I)cc2F)o1` [Example 1, 5-[3-(2-Fluoro-4-iodo-phenylamino)-pyridin-4-yl]-3H-[1,3,4]oxadiazol-2-one], for which the IC50 in assay [1] is 3000 to 25000 nM; in assay [2] it was not above 3000 nM; in assay [3], 3000 to 25000 nM; in assay [4], not above 3000 nM.

For `Fc1cc(I)ccc1Nc1cnccc1-c1n[nH]c(=S)o1` [Example 3, 5-[3-(2-Fluoro-4-iodo-phenylamino)-pyridin-4-yl]-3H-[1,3,4]oxadiazole-2-thione], the IC50 in assay [1] is not above 3000 nM; in assay [2], not above 3000 nM; in assay [3] it was 3000 to 25000 nM; in assay [4], not above 3000 nM.

As for `O=c1[nH]nc(-c2ccncc2Nc2ccc(I)cc2F)[nH]1` [Example 4, 5-[3-(2-Fluoro-4-iodo-phenylamino)-pyridin-4-yl]-2,4-dihydro-[1,2,4]triazol-3-one], the IC50 in assay [1], in assay [2], in assay [3] and in assay [4] was not above 3000 nM in each case.

With `CSc1nnc(-c2ccncc2Nc2ccc(I)cc2F)o1` [Example 5, (2-Fluoro-4-iodo-phenyl)-[4-(5-methylsulfanyl-[1,3,4]oxadiazol-2-yl)-pyridin-3-yl]-amine], the IC50 in assay [1], in assay [2], in assay [3] and in assay [4] was not above 3000 nM throughout.

`Fc1cc(I)ccc1Nc1cnccc1-c1nnc(N2CCOCC2)o1` [Example 6, (2-Fluoro-4-iodo-phenyl)-[4-(5-morpholin-4-yl-[1,3,4]oxadiazol-2-yl)-pyridin-3-yl]-amine]: the IC50 in assay [1], in assay [2], in assay [3] and in assay [4] was not above 3000 nM in each case.

Consider `CNc1nnc(-c2ccncc2Nc2ccc(I)cc2F)s1` [Example 7, (2-Fluoro-4-iodo-phenyl)-[4-(5-methylamino-[1,3,4]thiadiazol-2-yl)-pyridin-3-yl]-amine], for which the IC50 in assay [1], in assay [2], in assay [3] and in assay [4] was not above 3000 nM each time.

Turning to `Cn1c(-c2ccncc2Nc2ccc(I)cc2F)n[nH]c1=S` [Example 8, 5-[3-(2-Fluoro-4-iodo-phenylamino)-pyridin-4-yl]-4-methyl-2,4-dihydro-[1,2,4]triazole-3-thione], the IC50 in assay [1], in assay [2], in assay [3] and in assay [4] was not above 3000 nM each time.

With `Fc1cc(I)ccc1Nc1cnccc1C1NNC(=S)N1CCN1CCOCC1` (centres unmarked) [Example 9, 5-[3-(2-Fluoro-4-iodo-phenylamino)-pyridin-4-yl]-4-(2-morpholin-4-yl-ethyl)-[1,2,4]triazolidine-3-thione], the IC50 was not above 3000 nM in assay [1], 3000 to 25000 nM in assay [2], not above 3000 nM in assay [3] and not above 3000 nM in assay [4].

In the case of `CC1(C)OCC(CNc2nnc(-c3ccncc3Nc3ccc(I)cc3F)o2)O1` (centres unmarked) [Example 10, (4-{5-[(2,2-Dimethyl-[1,3]dioxolan-4-ylmethyl)-amino]-[1,3,4]oxadiazol-2-yl}-pyridin-3-yl)-(2-fluoro-4-iodo-phenyl)-amine], the IC50 in assay [1], in assay [2], in assay [3] and in assay [4] was not above 3000 nM in each case.

As for `OCC(O)CNc1nnc(-c2ccncc2Nc2ccc(I)cc2F)o1` (centres unmarked) [Example 11, 3-{5-[3-(2-Fluoro-4-iodo-phenylamino)-pyridin-4-yl]-[1,3,4]oxadiazol-2-ylamino}-propane-1,2-diol], the IC50 in assay [1], in assay [2], in assay [3] and in assay [4] was not above 3000 nM each time.

As to `Fc1cc(I)ccc1Nc1cnccc1-c1nnc(NCCN2CCOCC2)s1` [Example 12, (2-Fluoro-4-iodo-phenyl)-{4-[5-(2-morpholin-4-yl-ethylamino)-[1,3,4]thiadiazol-2-yl]-pyridin-3-yl}-amine], the IC50 in assay [1], in assay [2], in assay [3] and in assay [4] was not above 3000 nM throughout.

Consider `Cc1nnc(-c2ccncc2Nc2ccc(I)cc2F)o1` [Example 13, (2-Fluoro-4-iodo-phenyl)-[4-(5-methyl-[1,3,4]oxadiazol-2-yl)-pyridin-3-yl]-amine], for which the IC50 in assay [1], in assay [2], in assay [3] and in assay [4] was not above 3000 nM each time.

As for `Nc1nnc(-c2ccncc2Nc2ccc(Br)cc2Br)o1` [Example 14, [4-(5-Amino-[1,3,4]oxadiazol-2-yl)-pyridin-3-yl]-(2,4-dibromo-phenyl)-amine], the IC50 in assay [1], in assay [2], in assay [3] and in assay [4] was not above 3000 nM each time.

Consider `CCOC(=O)C(=O)Nc1nnc(-c2ccncc2Nc2ccc(I)cc2F)o1` [Example 15, N-{5-[3-(2-Fluoro-4-iodo-phenylamino)-pyridin-4-yl]-[1,3,4]oxadiazol-2-yl}-oxalamic acid ethyl ester], for which the IC50 in assay [1], in assay [2], in assay [3] and in assay [4] was not above 3000 nM in each case.

For `CNc1nnc(-c2ccncc2Nc2ccc(I)cc2F)o1` [Example 16, (2-Fluoro-4-iodo-phenyl)-[4-(5-methylamino-[1,3,4]oxadiazol-2-yl)-pyridin-3-yl]-amine], the IC50 in assay [1], in assay [2], in assay [3] and in assay [4] was not above 3000 nM in each case.

As to `CCOC(=O)CNC(=O)Nc1nnc(-c2ccncc2Nc2ccc(I)cc2F)o1` [Example 17, (3-{5-[3-(2-Fluoro-4-iodo-phenylamino)-pyridin-4-yl]-[1,3,4]oxadiazol-2-yl}-ureido)-acetic acid ethylester], the IC50 in assay [1] is 3000 to 25000 nM; in assay [2], not above 3000 nM; in assay [3], more than 25000 nM; in assay [4], 3000 to 25000 nM.

In the case of `Fc1cc(I)ccc1Nc1cnccc1-c1nnc(NCCN2CCCCC2)o1` [Example 18, (2-Fluoro-4-iodo-phenyl)-{4-[5-(2-piperidin-1-yl-ethylamino)-[1,3,4]oxadiazol-2-yl]-pyridin-3-yl}-amine], the IC50 in assay [1], in assay [2], in assay [3] and in assay [4] was not above 3000 nM throughout.

For the molecule `Fc1cc(I)ccc1Nc1cnccc1-c1nnc(NCCCN2CCOCC2)o1` [Example 19, (2-Fluoro-4-iodo-phenyl)-{4-[5-(3-morpholin-4-yl-propylamino)-[1,3,4]oxadiazol-2-yl]-pyridin-3-yl}-amine], the IC50 in assay [1], in assay [2], in assay [3] and in assay [4] was not above 3000 nM in each case.

On to `Fc1cc(I)ccc1Nc1cnccc1-c1nnc(NCCN2CCOCC2)o1` [Example 20, (2-Fluoro-4-iodo-phenyl)-{4-[5-(2-morpholin-4-yl-ethylamino)-[1,3,4]oxadiazol-2-yl]-pyridin-3-yl}-amine], for which the IC50 in assay [1], in assay [2], in assay [3] and in assay [4] was not above 3000 nM in each case.

In turn, `C#Cc1cc(-c2nnc(N)o2)c(Nc2ccc(I)cc2F)cn1` [Example 28, [4-(5-Amino-[1,3,4]oxadiazol-2-yl)-6-ethynyl-pyridin-3-yl]-(2-fluoro-4-iodo-phenyl)-amine] registered an IC50 in assay [2] not above 3000 nM.

Turning to `CCOc1nnc(-c2ccncc2Nc2ccc(I)cc2F)[nH]1` [Example 30, [4-(5-Ethoxy-4H-[1,2,4]triazol-3-yl)-pyridin-3-yl]-(2-fluoro-4-iodo-phenyl)-amine], the IC50 in assay [2] is not above 3000 nM.

Molecule `CCOC(=O)c1noc(-c2ccncc2Nc2ccc(I)cc2F)n1` [Example 36, 5-[3-(2-Fluoro-4-iodo-phenylamino)-pyridin-4-yl]-[1,2,4]oxadiazole-3-carboxylic acid ethyl ester] registered an IC50 in assay [2] not above 3000 nM.

As for `Cc1noc(C)c1-c1ccncc1Nc1ccc(I)cc1F` [Example 66], the IC50 in assay [2] is not above 3000 nM.
